This is an account of results in patent US6458978B1, “Fluorous phosphines and process for their preparation” (Atofina Vlissingen B.V., priority 1998, dated 2002).

Series [1] can be described thus: Solubility of dppe and dppe derivatives G{m,x} in perfluorinated and non-fluorinated solvents. The series is classed as physicochemical. The settings on record: for solubility at room temperature, FC-72: FC-72: mixture of perfluorinated hexanes.
Series [2] is described as follows: Rhodium catalyzed hydrogenation of 1-octene under single phase fluorous conditions with catalyst recycling. The settings on record: for TOF50% / TON (cumulative) / conv.: p(H2) = 1 bar. On the procedure: (Table 5). In this respect compounds H{1,6} and H{1,8} are true fluorous equivalents of the classical Wilkinson's hydrogenation catalyst (PPh3)3RhCl. The hydrogenation products were readily isolated from the catalyst layer by cooling of the reaction mixture to 0° C. followed by phase separation of the resulting biphasic system. In this way hydrogenation of 1-octene afforded n-octane in >95% yield (GC, GC-MS). Less than 4.3% internal olefins resulting from isomerization were present. In case of H{1,8} it was possible to recycle the fluorous catalyst layer multiple times allowing high turnover numbers and high conversions per cycle (Table 5 and FIG. 5).
20. Rhodium Catalyzed Hydrogenation Reactions
The catalytic experiments were carried out in a 30 mL Schienk flask, under dihydrogen atmosphere (1 bar). The catalyst was either dissolved in a hydrogen saturated toluene or perfluoro solvent and the mixture was stirred with a magnetic stirring bar (900 rpm). The olefinic substrate was added after initial dihydrogen uptake had ceased. The dihydrogen uptake was monitored using two mineral oil filled gas burettes. During the hydrogenation reactions one burette was opened to the reaction vessel while the other was recharged with dihydrogen.
(§1) Only catalysts prepared through method 1 were used. Catalytic reactions were carried out under single phase fluorous conditions in c-CF3C6F11 (2 mL) at 80° C. After >90% conversion (monitored by the H2 uptake) the homogeneous reaction mixture was cooled to 0° C. and the upper organic layer was siphoned of. In between cycles the fluorous layer was kept under H2 atmosphere. By warming up to 80° C. and addition of a fresh portion of 1-octene (12.74 mmol) a new cycle was started. The organic phases resulting from the first cycle were analyzed by GC and ICP-AAS.

A short description of series [3]: Leaching of rhodium and phosphorus into the organic product phase and partitioning of rhodium species (ICP-AAS). The settings on record: fluorous biphasic product mixture from hydrogenation of 1-octene.
Description: Rhodium leaching into the organic phase (as determined by ICP-AAS) was low. On average 0.12% of Rh per cycle was lost corresponding to a rhodium concentration of 3 ppm (by weight) in the product phase. Over 9 cycles only 1% of rhodium was lost despite of the phase separation method used. Leaching was higher for less fluorous pre-catalyst H{1,6}: 0.3% (6 ppm) of rhodium was present in the organic phase after phase separation.
The amount of leached rhodium allows to calculate the average partition coefficients (P) of the rhodium species present during phase separation (Table 6). […] Chem. Soc. 1999, 121, 2696-2704.). […] Chem. Int. Ed. Engl. 1997, 36, 1610-1612).
The retention of free uncoordinated fluorous phosphine can be used for recycling the intact catalyst system.
as §1

Series [4] can be described thus: Hydrogenation of 1-octene under single phase conditions in α,α,α-trifluorotoluene. The settings on record: [Rh] 4.0 mM, [1-octene] 1.46 M; T = 80° C., p(H2) = 1 bar, α,α,α-trifluorotoluene. Here is the method:
To be able to directly compare the activities of fluorous derivatives H{1,6} and H{1,8} with non-fluorous [P(C6H4-4-SiMe3)3]3RhCl (H{0}) and the conventional Wilkinson catalyst (PPh3)3RhCl, homogeneous hydrogenation of 1-octene were carried out under single phase conditions in the hybrid solvent α,α,α-trifluorotoluene at atmospheric H2 pressures. Highest rates of hydrogen uptake (14.2 mol.L^−1.h^−1) were measured for 1c at relatively high rhodium and olefine concentrations (entry 2, Table 7). Under these conditions a zero-order dependence in [1-octene] was found up to ca 80% conversion resulting in a linear conversion versus time plot. In all other experiments ([Rh]=4.0-8.0 mM, [1-octene]0=1.46 M) rates of hydrogen uptake were lower (<11 mol.L^−1.h^−1) and conversion versus time plots corresponded to a rate law -d[1-octene]/dt=kobs.[1-octene] for >98% conversion allowing to evaluate catalyst activity in terms of the observed first order rate constant kobs. Since for these experiments the rates of dihydrogen uptake were well below the maximum value obtained in entry 2, diffusion limitation of H2 can be excluded. In addition to kobs, turn over frequencies (TOF in mol.mol^−1.h^−1) were derived from the tangent of a 4^thorder polynomal fit to conversion versus time plots at 25% conversion and serve as a measure of catalyst activity independent of any assumed kinetic relationship with substrate.
Catalytic reactions were carried out under single phase conditions in CF3C6H5 at 80° C. under 1 bar of hydrogen pressure. After >90% conversion (monitored by the H2 uptake) volatiles were distilled off and analyzed by GC. Activities (TOF) were determined for 25% conversion.

[5] abbreviates: cycle 1, c-CF3C6F11, 80° C., [1-octene]/[Rh] = 559, [Rh]0 = 0.0060M.
[6] abbreviates: cycle 1, c-CF3C6F11, 80° C., [1-octene]/[Rh] = 365.
[7] abbreviates: cycle 2, c-CF3C6F11, 80° C., [1-octene]/[Rh] = 365.
Where [8] appears, read: cycle 3, c-CF3C6F11, 80° C., [1-octene]/[Rh] = 365.
Setting [9] is: cycle 4, c-CF3C6F11, 80° C., [1-octene]/[Rh] = 365.
Where [10] appears, read: cycle 5, c-CF3C6F11, 80° C., [1-octene]/[Rh] = 365.
Where [11] appears, read: cycle 6, c-CF3C6F11, 80° C., [1-octene]/[Rh] = 365.
[12] abbreviates: cycle 7, c-CF3C6F11, 80° C., [1-octene]/[Rh] = 365.
The mark [13] stands for this setting: cycle 8, c-CF3C6F11, 80° C., [1-octene]/[Rh] = 365.
The mark [14] stands for this setting: cycle 9, fresh c-CF3C6F11 added as compensation for losses of fluorous solvent, 80° C.

SMILES strings stand for the structures. Marks after values point to notes of the source that are not given here.

As for `C[Si](CCC(F)(F)C(F)(F)C(F)(F)C(F)(F)C(F)(F)C(F)(F)F)(CCC(F)(F)C(F)(F)C(F)(F)C(F)(F)C(F)(F)C(F)(F)F)c1ccc(P(CCP(c2ccc([Si](C)(CCC(F)(F)C(F)(F)C(F)(F)C(F)(F)C(F)(F)C(F)(F)F)CCC(F)(F)C(F)(F)C(F)(F)C(F)(F)C(F)(F)C(F)(F)F)cc2)c2ccc([Si](C)(CCC(F)(F)C(F)(F)C(F)(F)C(F)(F)C(F)(F)C(F)(F)F)CCC(F)(F)C(F)(F)C(F)(F)C(F)(F)C(F)(F)C(F)(F)F)cc2)c2ccc([Si](C)(CCC(F)(F)C(F)(F)C(F)(F)C(F)(F)C(F)(F)C(F)(F)F)CCC(F)(F)C(F)(F)C(F)(F)C(F)(F)C(F)(F)C(F)(F)F)cc2)cc1` [G{2,6}], in series [1], the “solubility at room temperature, THF” value is “+ (+: >0.1 g/ml)” and the “solubility at room temperature, FC-72” value was “+ (+: >0.1 g/ml)”.
As to `FC(F)(F)C(F)(F)C(F)(F)C(F)(F)C(F)(F)C(F)(F)CC[Si](CCC(F)(F)C(F)(F)C(F)(F)C(F)(F)C(F)(F)C(F)(F)F)(CCC(F)(F)C(F)(F)C(F)(F)C(F)(F)C(F)(F)C(F)(F)F)c1ccc(P(CCP(c2ccc([Si](CCC(F)(F)C(F)(F)C(F)(F)C(F)(F)C(F)(F)C(F)(F)F)(CCC(F)(F)C(F)(F)C(F)(F)C(F)(F)C(F)(F)C(F)(F)F)CCC(F)(F)C(F)(F)C(F)(F)C(F)(F)C(F)(F)C(F)(F)F)cc2)c2ccc([Si](CCC(F)(F)C(F)(F)C(F)(F)C(F)(F)C(F)(F)C(F)(F)F)(CCC(F)(F)C(F)(F)C(F)(F)C(F)(F)C(F)(F)C(F)(F)F)CCC(F)(F)C(F)(F)C(F)(F)C(F)(F)C(F)(F)C(F)(F)F)cc2)c2ccc([Si](CCC(F)(F)C(F)(F)C(F)(F)C(F)(F)C(F)(F)C(F)(F)F)(CCC(F)(F)C(F)(F)C(F)(F)C(F)(F)C(F)(F)C(F)(F)F)CCC(F)(F)C(F)(F)C(F)(F)C(F)(F)C(F)(F)C(F)(F)F)cc2)cc1` [G{3,6}], in series [1], the “solubility at room temperature, THF” value is listed as “− (−: <0.01 g/ml)”; the “solubility at room temperature, toluene” value is on record as “− (−: <0.01 g/ml)”; the “solubility at room temperature, FC-72” value is “+ (+: >0.1 g/ml)”.
In the case of `C[Si](C)(CCC(F)(F)C(F)(F)C(F)(F)C(F)(F)C(F)(F)C(F)(F)F)c1ccc([PH](c2ccc([Si](C)(C)CCC(F)(F)C(F)(F)C(F)(F)C(F)(F)C(F)(F)C(F)(F)F)cc2)(c2ccc([Si](C)(C)CCC(F)(F)C(F)(F)C(F)(F)C(F)(F)C(F)(F)C(F)(F)F)cc2)[Rh]([Cl])([PH](c2ccc([Si](C)(C)CCC(F)(F)C(F)(F)C(F)(F)C(F)(F)C(F)(F)C(F)(F)F)cc2)(c2ccc([Si](C)(C)CCC(F)(F)C(F)(F)C(F)(F)C(F)(F)C(F)(F)C(F)(F)F)cc2)c2ccc([Si](C)(C)CCC(F)(F)C(F)(F)C(F)(F)C(F)(F)C(F)(F)C(F)(F)F)cc2)[PH](c2ccc([Si](C)(C)CCC(F)(F)C(F)(F)C(F)(F)C(F)(F)C(F)(F)C(F)(F)F)cc2)(c2ccc([Si](C)(C)CCC(F)(F)C(F)(F)C(F)(F)C(F)(F)C(F)(F)C(F)(F)F)cc2)c2ccc([Si](C)(C)CCC(F)(F)C(F)(F)C(F)(F)C(F)(F)C(F)(F)C(F)(F)F)cc2)cc1` [H{1,6}, (D{1,6})3RhCl], in series [2] (setting [5]), the TOF50% amounted to 298 h⁻¹ and the “TON (cumulative)” value is 531. This molecule returned a conv. in series [2] (cycle 1, c-CF3C6F11, 80° C., containing 10 mol % of D{1,6}, [1-octene]/[Rh] = 559, [Rh]0 = 0.0060M) of 95%. In series [3] (T = 0° C.), the “Average partitioning coefficient P of rhodium species” value (shortened to “Average partitioning coefficient P”) is on record as 293^b. For the same molecule, the “Average partitioning coefficient P” value in series [3] (T = 25° C.) is listed as 76^b. In series [4], the “TOF(25%), turn over frequency at 25% conversion” value came out at 1110 h⁻¹; the “TON (mole of olefin/mole of Rh)” value is given as 363; the conversion worked out at 99%; the “kobs (first order rate constant)” value is 4.2(1) h^−1.
Take `C[Si](C)(CCC(F)(F)C(F)(F)C(F)(F)C(F)(F)C(F)(F)C(F)(F)C(F)(F)C(F)(F)F)c1ccc(P(c2ccc([Si](C)(C)CCC(F)(F)C(F)(F)C(F)(F)C(F)(F)C(F)(F)C(F)(F)C(F)(F)C(F)(F)F)cc2)c2ccc([Si](C)(C)CCC(F)(F)C(F)(F)C(F)(F)C(F)(F)C(F)(F)C(F)(F)C(F)(F)C(F)(F)F)cc2)cc1.C[Si](C)(CCC(F)(F)C(F)(F)C(F)(F)C(F)(F)C(F)(F)C(F)(F)C(F)(F)C(F)(F)F)c1ccc(P(c2ccc([Si](C)(C)CCC(F)(F)C(F)(F)C(F)(F)C(F)(F)C(F)(F)C(F)(F)C(F)(F)C(F)(F)F)cc2)c2ccc([Si](C)(C)CCC(F)(F)C(F)(F)C(F)(F)C(F)(F)C(F)(F)C(F)(F)C(F)(F)C(F)(F)F)cc2)cc1.C[Si](C)(CCC(F)(F)C(F)(F)C(F)(F)C(F)(F)C(F)(F)C(F)(F)C(F)(F)C(F)(F)F)c1ccc(P(c2ccc([Si](C)(C)CCC(F)(F)C(F)(F)C(F)(F)C(F)(F)C(F)(F)C(F)(F)C(F)(F)C(F)(F)F)cc2)c2ccc([Si](C)(C)CCC(F)(F)C(F)(F)C(F)(F)C(F)(F)C(F)(F)C(F)(F)C(F)(F)C(F)(F)F)cc2)cc1.[Cl][Rh]` [H{1,8}, (D{1,8})3RhCl]: the “Drop of catalyst activity” value in series [2] (9th cycle, amount of c-C6F11CF3 restored to its initial volume) was found to be 19%. Besides, the TOF50% in series [2] (setting [6]) came out at 177 h⁻¹; in series [2] (setting [7]), 212 h⁻¹; in series [2] (setting [8]), 261 h⁻¹; in series [2] (setting [9]), 277 h⁻¹; in series [2] (setting [10]), 304 h⁻¹; in series [2] (setting [11]), 397 h⁻¹. Moreover, the TOF50% is 507 h⁻¹ in series [2] (setting [12]), 617 h⁻¹ in series [2] (setting [13]) and 142 h⁻¹ in series [2] (setting [14]). The “TON (cumulative)” value in series [2] (setting [6]) was 337; in series [2] (setting [7]), 688; in series [2] (setting [8]) it was 1048; in series [2] (setting [9]), 1383; in series [2] (setting [10]), 1747; in series [2] (setting [11]) it was 2100. Moreover, the figures for the “TON (cumulative)” value in series [2] (setting [12]), in series [2] (setting [13]) and in series [2] (setting [14]) were 2444, 2808 and 3117, respectively. Also, the conv. in series [2] (cycle 1, c-CF3C6F11, 80° C., [1-octene]/[Rh] = 365, [Rh] = 0.0087M in the initial cycle) worked out at 92%; in series [2] (setting [7]), 96%; in series [2] (setting [8]), 99%; in series [2] (setting [9]), 92%; in series [2] (setting [10]) it was 99.8%; in series [2] (setting [11]), 96.8%. In addition, the conv. was 94% in series [2] (setting [12]), 99.7% in series [2] (setting [13]) and 85% in series [2] (setting [14]). In addition, the “Average partitioning coefficient P” value in series [3] (T = 0° C.) is 1052^c. For the same molecule, the “TOF(25%), turn over frequency at 25% conversion” value in series [4] worked out at 870 h⁻¹. Also, the “TON (mole of olefin/mole of Rh)” value in series [4] is on record as 355. In series [4], this molecule had a conversion of 99%. The “kobs (first order rate constant)” value in series [4] was 3.2(1) h^−1.
